In the assay the test system is TβR-I and TβR-II. Description: 125I-TGF-β1 affinity labeling, Mv1Lu cells. Format: cell-based, mink. The protocol:
(A) Mv1Lu cells were treated with 50 μg/ml cholesterol at 37° C. After several time periods, as indicated, ^125I-TGF-β1-affinity labeling was performed at 0° C. ^125I-TGF-β1 affinity-labeled TGF-β receptors were analyzed by 7.5% SDS-PAGE and autoradiography (a) and quantified with a PhosphoImager. The bracket indicates the locations of ^125I-TGF-β1 affinity-labeled TβR-I and TβR-II. The ratio of ^125I-TGF-β1 binding to TβR-II and TβR-I is plotted against incubation time (b).
(B, C, D, E) Cells were treated with increasing concentrations of cholesterol in the presence (C) and absence (B, D, E) of 0.2% β-CD, as indicated. After 1 hr at 37° C., ^125I-TGF-β1 affinity labeling of TβR-I and TβR-II in cells was performed at 0° C. ^125I-TGF-β1 affinity-labeled TβR-I and TβR-II were analyzed by 7.5% SDS-PAGE and autoradiography or quantified with a PhosphoImager. A representative of a total of three analyses is shown (top). The bracket indicates the locations of ^125I-TGF-β affinity-labeled TβR-I and TβR-II. The relative intensities of ^125I-TGF-β1 affinity-labeled TβR-I and TβR-II in cells treated without cholesterol were taken as 100%. The quantitative data from three analyses is shown (bottom).
The bracket indicates the locations of ^125I-TGF-β1 affinity-labeled TβR-I and TβR-II. The relative intensities of ^125I-TGF-β1-TβR-I and ^125I-TGF-β1-TβR-II complexes, which were quantified with a PhosphoImager, are plotted against TGF-β1 concentrations (bottom).
(A, B, C, D, E, F) Cells were treated with LDL (50 μg protein/ml), VLDL (5 μg protein/ml), HDL (50 μg protein/ml), lipoprotein (a) (10 μg/ml), fluvastatin (F; 1 μM), lovastatin (L; 1 μM), nystatin (Nys; 25 μg/ml), β-CD (β-CD; 8 mM), cholest-4-en-3-one (3-one; 50 μg/ml) or cholesterol (Chol; 50 μg/ml) alone or combination of two. After 1 hr at 37° C. or 16 hr at 37° C. (for fluvastatin and lovastatin), ^125I-TGF-β1 affinity labeling of cell-surface TGF-β receptors was performed at 0° C. ^125I-TGF-β1 affinity-labeled TβR-I and TβR-II were analyzed by 7.5% SDS-PAGE and autoradiography. The relative intensities of TβR-I and TβR-II were quantified with a PhosphoImager. The ratio of ^125I-TGF-β1 binding to TβR-II and TβR-I were estimated. The numbers above the lane sequence denote the ratio of TβR-II/TβR-I.
(G) Mv1Lu cells were treated with 50 μg/ml of cholesterol and cholesterol analogs/derivatives including 25-hydroxycholesterol, 7-dehydrocholesterol (7-DHC), 7-ketocholesterol, 7β, 8β-epoxycholesterol, 7β-hydroxycholesterol, and oxidized 7-dehydrocholesterol (oxy-7DHC). After 1 hr at 37° C., ^125I-TGF-β1 affinity labeling of TGF-β receptors was performed. ^125I-TGF-β1 affinity-labeled TβR-I and TβR-II were analyzed by 7.5% SDS-PAGE and autoradiography. The bracket indicates the locations of ^125I-TGF-β1-affinity-labeled TβR-I and TβR-II. The relative intensities of ^125I-TGF-β1 affinity-labeled TβR-I and TβR-II were determined by a PhosphoImager. The ratios of ^125I-TGF-β1 binding to TβR-II and TβR-I were estimated. The numbers above the lane sequence denote the ratio of TβR-II/TβR-I.
After cross-linking, cell lysates were analyzed by 7.5% SDS-PAGE and autoradiography or quantified by a PhosphoImager. For all experiments, cholesterol or cholesterol derivatives were prepared as the stock solution with a concentration of 25 mg/ml in ethanol. The final concentration of ethanol in the medium was 0.2% (by vol.).

Setting [1] is: 50 μg/ml, 60-min or 120-min incubation (FIG. 3A).
The mark [2] stands for this setting: 125 μg/ml in the presence of 0.2% β-CD.

The structures appear in SMILES notation.

Consider `CC(C)CCC[C@@H](C)[C@H]1CC[C@H]2[C@@H]3CC=C4C[C@@H](O)CC[C@]4(C)[C@H]3CC[C@]12C` [cholesterol], for which the “effect on 125I-TGF-β1 binding to TβR-II” value runs as follows: under setting [1], “did not affect”; under setting [2], “little effect”. Besides, the “increase of 125I-TGF-β1 binding to TβR-I” value is, setting by setting: under setting [1], around 1.5 fold; (50 μg/ml, 1 hr, 125 pM 125I-TGF-β1 (FIG. 3F)) around 2 fold; (50 μg/ml, 1 hr, Mv1Lu cells) around 2.5 fold; under setting [2], around 3 fold. Besides, the “ratio of TβR-II/TβR-I” value runs as follows: (50 μg/ml, 60 min or 120 min, 0.37 without cholesterol) 0.18; (50 μg/ml, 1 hr, Mv1Lu cells, 0.42 untreated) 0.20. Also, where the note is “50 μg/ml, 1 hr”, the “effect on the affinities of TGF-β1 binding to both TβR-I and TβR-II” value is listed as “does not alter”. The “relative potency in increasing binding to TβR-I and decreasing the ratio” value (50 μg/ml, 1 hr (FIG. 4G)) is listed as “the most potent of these compounds”. The 125I-TGF-β1 binding to TβR-II, relative intensity (50 μg/ml, 1 hr, 125 pM 125I-TGF-β1, ~180 untreated) was ~120 ×10^3 A.U. The “125I-TGF-β1 binding to TβR-I, relative intensity” value (50 μg/ml, 1 hr, 125 pM 125I-TGF-β1, ~350 untreated) is on record as ~700 ×10^3 A.U. Also, the “ratio of TGF-β1 binding to TβR-II and TβR-I” value (50 μg/ml, 1 hr, 0.62 untreated (FIG. 4G)) was determined as 0.29. Also, where the note is “CHO-K1, Mv1Lu and BAEC cells (FIGS. 4D, E and F)”, the “effect of exogenous cholesterol on the statin effect on the ratio” value is on record as “abolished”. Moreover, the “effect on binding of 125I-TGF-β1 to TβR-II” value (increasing concentrations, 1 hr, Mv1Lu cells) was “did not significant alter”.
Take `CC[C@H](C)C(=O)O[C@H]1C[C@@H](C)C=C2C=C[C@H](C)[C@H](CC[C@@H]3C[C@@H](O)CC(=O)O3)[C@H]21` [lovastatin, reference compound]: the “ratio of TβR-II/TβR-I” value (1 μM, 37° C. 16 hr, Mv1Lu cells, 0.88 untreated) is given as 1.18.
With `C[C@@H]1[C@H](O)[C@@H](C)/C=C/C=C/CC/C=C/C=C/C=C/C=C/C(O[C@H]2O[C@H](C)[C@@H](O)[C@H](N)[C@@H]2O)CC2O[C@](O)(CC(O)C(O)CCC(O)CC(O)CC(O)CC(=O)O[C@H]1C)CC(O)C2C(=O)O` (some centres unmarked) [nystatin, reference compound], the “effect on the LDL- or cholesterol-induced increase of 125I-TGF-β1 binding to TβR-I” value (co-treatment, β-CD 8 mM, nystatin 25 μg/ml, cholest-4-en-3-one 50 μg/ml (FIG. 4B, C)) is on record as “abolished”.

(Values after patent US8946201B2, “Methods for inhibiting TGF-β” (Saint Louis University, priority 2007, dated 2015).)
